Test results published in patent US9983196B2, “Compositions and methods for optimizing drug hydrophobicity and drug delivery to cells” (Bioelastics, Inc., priority 2009, dated 2018).
Like-named read-outs stand apart in the source and are kept apart here.

What was measured:
[1] = differential scanning calorimetry of the inverse temperature transition: ΔGHA-based hydrophobicity scale; assay type: physicochemical
Excerpt: Described herein is a hydrophobicity scale based on the change in Gibbs free energy of hydrophobic association. Increase in entropy of water drives endothermic phase transition of hydrophobic association. For a narrow phase transition the chemical potential, t, of the molecules in the phase separated, hydrophobically associated state, 1.IHA, and the solution, hydrophobically dissociated state, 1.1HD, are equal. Therefore, at constant temperature and pressure, i.e., at equilibrium, the change in Gibbs free energy for the phase transition is zero, (ΔGt)TP=0 and ΔHT=TtΔSt. For the breadth of the transition of elastic-contractile model proteins [ECMP], it is written: ΔHt≈TtΔSt, (1) i.e., the heat of the transition, ΔHt in kcal/mol, is approximated by the product of the temperature of the transition, Tt in ° K, times the entropy change attending the transition, ΔSt in kcal/° K-mol.
The van der Walls interaction is exothermic for the hydrophobic association attending the ITT, yet the ITT is endothermic. […] The derivation of the change in Gibbs free energy for hydrophobic association, ΔGHA, and evaluation by inverse temperature transition of hydrophobic association has been reported previously (D. W. Urry, The Change in Gibbs Free Energy for Hydrophobic Association Derivation and Evaluation by means of Inverse Temperature Transitions. Chem. Phys. Letters 399 (2004) 177-183.), and is given more simply below. […]
Given the above approximation, but also recognizing that ASt is a calculated result from the differential scanning calorimetric measurement of ΔHt, we define the change in Gibbs free energy for hydrophobic association, ΔGHA, as,
The differential scanning calorimetry (DSC) data of ΔHt(GVGVP) (SEQ ID NO:4) and ΔHt(GVGIP) (SEQ ID NO:8) in FIG. 1 of Luan and Urry, J Phys Chem 95:7896-7900, 1991 provide a specific example of the difference that defines ΔGHA. […] This is the same value of 1.5 kcal/mol-CH2 for the addition of a single CH2 as determined by Butler for the alcohol series.
Once the values are determined by difference with ΔHt(GVGVP) (SEQ ID NO:4) as represented in FIG. 1E, they are translated so the reference polymer is taken as (GGGVP (SEQ ID NO:11), as this residue is considered to be close to neutral, being neither polar nor apolar. For use of (GGGVP) (SEQ ID NO:11) as the reference, i.e., ΔHt(GGGVP) (SEQ ID NO:11)=AHt(ref), in Table 3 and FIG. 13, the change in Gibbs free energy for hydrophobic association is indicated as ΔG^oHA, i.e., […]
In this case most of the ΔG^oHA values have been obtained by taking the experimental Tt, suitably extrapolated to fx=1 to obtain Tt, and reading the value of ΔG^oHA from the sigmoid curve of FIG. 13. […]

[2] = cited from earlier work; for Tt: guest residue χ in poly[fχ(GχGVP),fv(GVGVP)], extrapolated to fχ=1, some cells marked (Tt); for Tt linearly extrapolated to fX = 1: poly[fV(VPGVG),fX(VPGXG)]; for Tt (data within parentheses): microbial preparations of poly(30 mers) (GVGVP GVGVP GχGVP GVGVP GVGVP GVGVP)n, n ≈ 40
[3] = cited from earlier work; for ΔG°HA(GχGVP): reference GGGVP = 0; for ΔG°HA(GχGVP) (from graph): Tt used to obtain value from experimental sigmoid curve of Tt versus ΔG°HA; for ΔG°HA(GχGVP) (data within parentheses): microbial preparations of poly(30 mers), n ≈ 40
[4] = Φ = E (glutamic acid, —COOH), cited from earlier work; for (∂ΔG/∂α) slope: from Hill plot; for ΔGgp (pKa shift): unperturbed pKa taken as 4.0
[5] = acid-base titration of elastic-contractile model proteins (pKa shift, Hill plot); assay type: physicochemical; settings: for ΔGap / ΔpKa: chemically-synthesized negatively-charged polymers of FIG. 3
[6] = controlled release of charged drug from oppositely charged ECMP; assay type: physicochemical; settings: release of Leu-enkephalin amide (LEA+); for zero order release level per day: after burst release, constant surface area
Excerpt: For controlled release of pharmaceuticals, positively charged drugs packaged in negatively charged ECMP result in zero-order release. Once the rate of drug release and its ΔGap have been determined for one member of a related family of ECMP, the release rates for another member of the family can be calculated from the acid-base titration data. […] Thus, the thermodynamics of model protein hydration can be determined for a designed ECMP with a known release rate and used to calculate the release rates of a drug from a related ECMP for which only the acid-base titration data has been determined.
FIG. 3 is a plot showing controlled release of positively charged Leu-enkephalin amide (H+-Tyr-Gly-Gly-Phe-Leu-NH2, (SEQ ID NO:6), LEA+) using chemically-synthesized, negatively-charged polymers with designed increases in hydrophobicity giving ΔpKa values of 0.9, 1.3, and 2.2 and ΔGap values of 1.2, 1.8, and 3.0 kcal/mol-E, respectively. After burst release due to 50% excess drug over polymer sites, a constant surface area maintains zero order release levels per day continuing at 4.7 μmole for 25 days, 2.7 μmole for 30 days, and 1.9 μmole for 70 days, respectively. The amino acid sequences from top to bottom are: SEQ ID NO:12, SEQ ID NO:13 and SEQ ID NO:14.
FIG. 5 is a pair of graphs of release profiles showing lower rates of drug release as n of nF increases, that is, as increasing numbers of Val (V) residues are replaced by Phe (F) residues using the series of Lys(K)/Phe(F)-containing model proteins of Table 3 with Φ=K. As the negatively-charged drug is added to the soluble positively-charged model protein phase separation occurs. Drug is added to a 50% excess, which is responsible for the burst release. A. Dexamethasone-phosphate release curves and B. Betamethasone-phosphate release curves.

| Substance | Tt [2] | ΔG°HA(GχGVP) ([3]; DSC) | further results |
| --- | --- | --- | --- |
| Leu [L: Leu] | 5 °C | −4.05 kcal/mol-pentamer | change on replacement of Val by Leu (single —CH2—) ([1]; from Table 1): −1.55 kcal/mol-CH2 |
| [GVGVP GVGVP GΦGVP GVGVP GVGFP GFGFP]n(GVGVP) (GVGVPGVGVPGGVPGVGVPGVGFPGFGFPGVGVP) [E/3F] | – | – | (∂ΔG/∂α) slope [4]: 1.7 kcal/mol; ΔGgp (pKa shift) [4]: 1.6 kcal/mol |
| Ser [S: Ser] | 60 °C | +0.55 kcal/mol-pentamer | – |
| Tyr(ϕ-O−) [Y−: Tyr(ϕ-O−)] | 140 °C | +1.95 kcal/mol-pentamer | – |
| (GFGFPGEGFPGFGFPGFGFPGEGFPGFGFP)n (GFGFPGEGFPGFGFP) [ECMP2E/10F] | – | – | pK of the carboxylate [5]: ~6.2; ΔGap [5]: 3.0 kcal/mol-E; ΔpKa [5]: 2.2; duration of zero order release [6]: 70 days; zero order release level per day [6]: 1.9 µmol |
| Thr [T: Thr] | 60 °C | −0.60 kcal/mol-pentamer | – |
| N-methyl-6-OH 1,4,5,6-tetrahydronicotinamide [Lys (6-OH tetrahydro NMeN)] | – | – | Tt linearly extrapolated to fX = 1 ([2]; 5.0 mg/ml polymer, 0.1M potassium bicarbonate pH 9.5, 0.1M KCl): 15 °C; ΔG°HA from FIG. 13 ([3]; gross estimates from Tt and curve, 5.0 mg/ml polymer, 0.1M potassium bicarbonate pH 9.5, 0.1M KCl): -3.5 kcal/mol |
| Asn [N: Asn] | 50 °C | −0.05 kcal/mol-pentamer | – |
| Phe [F: Phe] | −45 °C | −6.15 kcal/mol-pentamer | – |
| Ser (PO4^−2) | 860 (Tt) ° C. | – | contribution to change in Gibbs free energy for hydrophobic association on phosphorylation of Ser [1]: about +8 kcal/mol; Tt linearly extrapolated to fX = 1 ([2]; 40 mg/ml polymer, 0.15N NaCl, 0.01M phosphate pH 7.4): 860 °C; ΔG°HA(GχGVP) (from graph) [3]: ≈+8.0 (from graph) kcal/mol-pentamer; ΔG°HA from FIG. 13 ([3]; gross estimates (±0.5 kcal/mol) from Tt and curve, 40 mg/ml polymer, 0.15N NaCl, 0.01M phosphate pH 7.4): +8.0 kcal/mol |
| Gln [Q: Gln] | 70 °C | +0.75 kcal/mol-pentamer | – |
| Val [V: Val] | 26 °C | −2.50 kcal/mol-pentamer | – |
| His+ [H+: His+] | 30 (Tt) ° C. | – | ΔG°HA(GχGVP) (from graph) [3]: −1.90 (from graph) kcal/mol-pentamer |
| [GVGVP GVGFP GΦGFP GVGVP GVGFP GVGFP]n(GVGVP) (GVGVPGVGFPGGFPGVGVPGVGFPGVGFPGVGVP) [E/4F] | – | – | (∂ΔG/∂α) slope [4]: 2.2 kcal/mol; ΔGgp (pKa shift) [4]: 2.2 kcal/mol |
| Asp(COOH) [D°: Asp(COOH)] | 40 °C | −0.40 kcal/mol-pentamer | – |
| Tyr [Y: Tyr] | −75 °C | −5.85 kcal/mol-pentamer | – |

| Substance | Tt [2] | ΔG°HA(GχGVP) ([3]; DSC) | further results |
| --- | --- | --- | --- |
| Lys(NH2) [K°: Lys(NH2)] | 40 °C | −0.05 kcal/mol-pentamer | Tt (data within parentheses) [2]: 38 °C; ΔG°HA(GχGVP) (data within parentheses) [3]: −0.60 kcal/mol-pentamer |
| SEQ ID NO:13: chemically-synthesized, negatively-charged polymer of FIG. 3, middle sequence (GEGVPGVGVPGVGFPGFGFPGVGVPGVGVP) | – | – | ΔGap [5]: 1.8 kcal/mol-E; ΔpKa [5]: 1.3; duration of zero order release [6]: 30 days; zero order release level per day [6]: 2.7 µmol |
| SEQ ID NO:12: chemically-synthesized, negatively-charged polymer of FIG. 3, top sequence, least hydrophobic (GVGFPGEGFPGVGVP) | – | – | ΔGap [5]: 1.2 kcal/mol-E; ΔpKa [5]: 0.9; duration of zero order release [6]: 25 days; zero order release level per day [6]: 4.7 µmol |
| Pro [P: Pro] | 40 °C | −1.10 kcal/mol-pentamer | – |
| Met [M: Met] | 15 °C | −1.50 kcal/mol-pentamer | – |
| Gly [G: Gly] | 55 °C | 0.00 kcal/mol-pentamer | – |
| (GVGIP) [pentamer polymer with a single CH2 added to GVGVP] | – | – | ΔGHA due to the addition of a single CH2 ([3]; DSC, difference of ΔHt(GVGVP) and ΔHt(GVGIP)): −1.5 kcal/mol-pentamer |
| [GVGVP GVGFP GΦGFP GVGVP GVGVP GVGVP]n(GVGVP) (GVGVPGVGFPGGFPGVGVPGVGVPGVGVPGVGVP) [E/2F] | – | – | (∂ΔG/∂α) slope [4]: 1.3 kcal/mol; ΔGgp (pKa shift) [4]: 1.0 kcal/mol |
| His° [H°: His°] | −10 (Tt) ° C. | – | ΔG°HA(GχGVP) (from graph) [3]: −4.80 (from graph) kcal/mol-pentamer |
| Ile [I: Ile] | 10 °C | −3.65 kcal/mol-pentamer | – |
| Cys [C: Cys] | 30 (Tt) ° C. | – | ΔG°HA(GχGVP) (from graph) [3]: −1.90 (from graph) kcal/mol-pentamer |
| Asp(COO−) [D−: Asp(COO−)] | 170 (Tt) ° C. | – | ΔG°HA(GχGVP) (from graph) [3]: ≈+3.4 (from graph) kcal/mol-pentamer |
| Glu(COOH) [E°: Glu(COOH)] | 20 °C | −1.30 kcal/mol-pentamer | Tt (data within parentheses) [2]: 2 °C; ΔG°HA(GχGVP) (data within parentheses) [3]: −1.50 kcal/mol-pentamer |
| [GVGVP GVGFP GΦGFP GVGVP GVGFP GFGFP]n(GVGVP) (GVGVPGVGFPGGFPGVGVPGVGFPGFGFPGVGVP) [E/5F] | – | – | (∂ΔG/∂α) slope [4]: 3.0 kcal/mol; ΔGgp (pKa shift) [4]: 3.1 kcal/mol |
| Trp [W: Trp] | −105 °C | −7.00 kcal/mol-pentamer | – |
| [GVGVP GVGVP GΦGVP GVGVP GVGVP GVGVP]n(GVGVP) (GVGVPGVGVPGGVPGVGVPGVGVPGVGVPGVGVP) [E/0F] | – | – | (∂ΔG/∂α) slope [4]: 1.1 kcal/mol; ΔGgp (pKa shift) [4]: 0.7 kcal/mol |
